The target in assay [1] is T1, 5-hydroxytryptamine receptor 1A (Rattus norvegicus, UniProt P19327).
T1 sequence (P19327 whole entry): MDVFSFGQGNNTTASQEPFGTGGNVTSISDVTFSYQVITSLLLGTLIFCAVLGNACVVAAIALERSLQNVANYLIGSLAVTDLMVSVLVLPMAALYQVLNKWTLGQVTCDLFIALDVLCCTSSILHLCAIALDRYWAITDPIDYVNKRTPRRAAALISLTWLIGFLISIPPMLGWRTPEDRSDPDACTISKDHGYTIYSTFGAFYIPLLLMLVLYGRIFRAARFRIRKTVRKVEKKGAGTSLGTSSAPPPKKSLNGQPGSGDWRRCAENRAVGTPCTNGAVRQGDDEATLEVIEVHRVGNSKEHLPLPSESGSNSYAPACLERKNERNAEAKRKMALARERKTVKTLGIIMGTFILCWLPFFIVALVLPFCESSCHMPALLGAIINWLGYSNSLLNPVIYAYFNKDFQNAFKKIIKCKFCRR
The assay can be described thus: In vitro ability to displace the radioligand [3H]-OH-DPAT from binding to rat 5-hydroxytryptamine 1A receptor.

The target in assay [2] is 5-hydroxytryptamine receptor 7 (Rattus norvegicus, UniProt P32305). The assay can be described thus: In vitro ability to displace the radioligand [3H]5-CT from binding to rat 5-hydroxytryptamine 7 receptor.
Sequence of 5-hydroxytryptamine receptor 7 (P32305 whole entry): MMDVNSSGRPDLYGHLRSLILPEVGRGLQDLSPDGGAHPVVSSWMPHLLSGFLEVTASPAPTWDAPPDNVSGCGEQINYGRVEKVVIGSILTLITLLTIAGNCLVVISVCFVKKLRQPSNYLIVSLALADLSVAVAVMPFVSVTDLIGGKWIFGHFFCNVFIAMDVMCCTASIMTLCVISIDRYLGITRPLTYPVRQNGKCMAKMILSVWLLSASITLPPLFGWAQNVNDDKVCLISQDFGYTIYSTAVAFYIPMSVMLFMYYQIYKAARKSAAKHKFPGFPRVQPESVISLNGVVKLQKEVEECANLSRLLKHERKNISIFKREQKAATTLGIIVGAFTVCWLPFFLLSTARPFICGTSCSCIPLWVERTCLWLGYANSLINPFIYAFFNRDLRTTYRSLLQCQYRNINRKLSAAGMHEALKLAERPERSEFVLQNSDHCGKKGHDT

Consider `COc1ccccc1N1CCN(Cc2ccccc2CN2C(=O)CCC2=O)CC1`, for which the Ki stood at 415 nM in assay [1] and 910 nM in assay [2].

Consider `COc1ccccc1N1CCN(Cc2ccccc2CN2C(=O)c3ccccc3C2=O)CC1`, for which the Ki was found to be 405 nM in assay [1] and 367 nM in assay [2].

Consider `COc1ccccc1N1CCN(C/C=C/CN2C(=O)c3ccccc3C2=O)CC1`, for which the Ki in assay [1] was 5 nM; in assay [2] it was 36 nM.

As to `COc1ccccc1N1CCN(C/C=C\CN2C(=O)CCC2=O)CC1`, the results for the Ki in assay [1] and in assay [2] were 157 nM and 790 nM, respectively.

For `COc1ccccc1N1CCN([C@H]2CC[C@H](N3C(=O)CCC3=O)CC2)CC1`, the Ki in assay [1] is 15.2 nM; in assay [2], 11500 nM.

For `COc1ccccc1N1CCN(C/C=C\CN2C(=O)c3ccccc3C2=O)CC1`, the Ki is 77 nM in assay [1] and 353 nM in assay [2].

With `COc1ccccc1N1CCN(C/C=C/CN2C(=O)CCC2=O)CC1`, the figures for the Ki in assay [1] and in assay [2] were 29 nM and 63 nM, respectively.

On to `COc1ccccc1N1CCN([C@H]2CC[C@H](N3C(=O)c4ccccc4C3=O)CC2)CC1`, for which the Ki in assay [1] was 8 nM; in assay [2] it was 2040 nM.

Broadly, the Ki is a measure of affinity in units of concentration, obtained from inhibition or displacement. A high value points to a looser hold on the target.

The record behind these values is ChEMBL document CHEMBL1137063, “The impact of spacer structure on 5-HT7 and 5-HT1A receptor affinity in the group of long-chain arylpiperazine ligands” (Bioorg Med Chem Lett, 2004).
